{
  "source": "paper PMC10102027",
  "about": "“Helquat dyes targeting G-quadruplexes as a new class of anti-HIV-1 inhibitors” (Scientific Reports, 2023)",
  "key": {"[1]": {"system": "G-quadruplexes in the HIV-1 LTR (G4 LTR FRET oligonucleotide)", "test": "FRET melting assay", "assay_type": "binding", "conditions": "2 μM compound, 0.2 μM oligonucleotide"}, "[2]": {"system": "HIV-1 LTR G-quadruplex template (G4 LTR Stop)", "test": "Taq polymerase stop assay", "assay_type": "biochemical", "conditions": "for Fold change, all regions (A, B and C) together: normalized against control", "protocol": "To address specifically the positions in the HIV-1 promoter region that are affected by the binding of G4-stabilizing agents, we performed a Taq polymerase stop assay. The wild-type LTR oligonucleotide was extended at the […] to include a primer-annealing region and used as a template for a single-cycle Taq polymerase reaction. The elongation of the radioactively labelled primer was performed at 45 °C in the presence or absence of the tested compounds and controls.\nA Taq polymerase stop assay was carried out as described in a previous study. Briefly, the primer (G4 LTR primer, Supplementary Table S1) was 5′-end labelled with [γ-^32P]ATP using T4 polynucleotide kinase at 37 °C for 30 min. The T4 polynucleotide kinase was then inactivated by incubation at 65 °C for 5 min. The radioactively labelled primer was column-purified and stored at − 20 °C for further use. The labelled primer (1.7 pmol) was annealed to the template (2.1 pmol) in the LiCaco buffer and extended with the Go Taq DNA polymerase (2U/reaction, Promega) at 45 °C for 45 min. Samples were incubated with G-quadruplex-ligands at 45 °C for 45 min before DNA polymerase addition. The reactions were stopped by a denaturing solution (80% formamide, 10% glycerol, 0.025% xylen cyanol, 0.025% bromphenol blue and 10 mM EDTA pH 8); extension products were separated on 15% denaturing gel and visualized by phosphorimaging. The pixel intensity of bands was calculated using 1D gel analysis in ImageQuant TL software version 8.1 (GE HealthCare) after automatic background subtraction by Rolling Ball method."}, "[3]": {"conditions": "2.5 µM, pixel intensity normalized against negative control"}},
  "data": [
    {"smiles": "NCCOc1cc(C(=O)Nc2cc(OCCN)c3ccccc3n2)nc(C(=O)Nc2cc(OCCN)c3ccccc3n2)c1", "note": "[PDS, pyridostatin, reference compound]", "values": [
      {"measurement": "Tm", "setting": "[1]; 100 mM KCl, mean and standard error, three experiments", "value": "93 ± 13", "unit": "°C"},
      {"measurement": "ΔTm", "setting": "[1]; average Tm minus average Tm of PBS", "value": 42, "unit": "°C"},
      {"measurement": "Fold change, all regions (A, B and C) together", "setting": "[2]; 1 μM", "value": 2.0},
      {"measurement": "Fold change, all regions (A, B and C) together", "setting": "[2]; 2.5 μM", "value": 2.4},
      {"measurement": "Fold change: A (G-patch 6′)", "setting": "[2]; [3]", "value": 2.6},
      {"measurement": "Fold change: B (G-patch 6)", "setting": "[2]; [3]", "value": 2.7},
      {"measurement": "Fold change: C (G-patch 5)", "setting": "[2]; [3]", "value": 1.6}
    ]}
  ]
}
